This note sets out measurements from article PMC7794939, “Discovery of Monoacylglycerol Lipase (MAGL) Inhibitors Based on a Pharmacophore-Guided Virtual Screening Study” (Molecules, 2020).

SMILES strings stand for the structures.

Holding throughout (assay type): biochemical
In test [1] the target is T1, Human recombinant MAGL (Homo sapiens, UniProt Q99685).
T1 construct: purchased Cayman Chemical (Ann Arbor, MI, USA)
T1 sequence (Q99685 1-303): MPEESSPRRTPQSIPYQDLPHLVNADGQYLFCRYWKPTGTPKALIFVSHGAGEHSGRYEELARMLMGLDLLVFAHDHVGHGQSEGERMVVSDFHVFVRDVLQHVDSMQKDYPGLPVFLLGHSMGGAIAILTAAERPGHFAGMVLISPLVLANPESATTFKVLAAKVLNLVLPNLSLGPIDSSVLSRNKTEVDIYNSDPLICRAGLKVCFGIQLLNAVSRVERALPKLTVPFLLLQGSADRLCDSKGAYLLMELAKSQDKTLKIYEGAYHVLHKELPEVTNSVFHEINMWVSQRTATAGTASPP
Nature of the test: MAGL enzyme inhibition assay (4-NPA substrate, absorbance 405 nm). The note with it: 30 min, rt, pH 7.2. The procedure: Human recombinant MAGL and 4-nitrophenyl acetate substrate (4-NPA) were bought from Cayman Chemical (Ann Arbor, MI, USA). […] The IC50 values were produced in 96-well microtiter plates. The MAGL reaction was carried out at rt at a final volume of 200 µL in 10 mM Tris buffer, pH 7.2, containing 1 mM EDTA and 0.1 mg/mL BSA. […] The reaction was started by adding 40 µL of MAGL (11 ng/well) in such a way that the assay was linear over 30 min. […] Two more reactions were carried out: one reaction containing no compounds and the second one containing neither enzyme nor inhibitor.

The target of test [2] is T1, Human recombinant MAGL. Description: MAGL inhibition with or without the thiol-containing agent DTT. How it is done: (§1) Furthermore, with the aim of establishing whether the mechanism of inhibition was reversible or irreversible, the effects of preincubation on the inhibitory activity of compounds VS1 and VS2 were evaluated. In this assay, the compounds were preincubated with the enzyme for 0, 30 and 60 min before adding the substrate to start the enzymatic reaction. An irreversible inhibitor should show a higher potency after longer incubation times, whereas a reversible inhibitor should display a constant inhibition potency that is independent from the incubation time. […] Taken together, these experimental studies, aimed at better characterizing the mode of action of compounds VS1 and VS2, further supported the reliability of the binding mode predicted for the two ligands.
Human recombinant MAGL and 4-nitrophenyl acetate substrate (4-NPA) were bought from Cayman Chemical (Ann Arbor, MI, USA). The reversible compound 17b reported by Granchi et al. in 2016 was synthesized in our laboratory and used as reference compound [19]. Compound 3l was synthesized in our laboratory according to the procedure reported by Aida et al. and used as reference compound. The IC50 values were produced in 96-well microtiter plates. The MAGL reaction was carried out at rt at a final volume of 200 µL in 10 mM Tris buffer, pH 7.2, containing 1 mM EDTA and 0.1 mg/mL BSA. A total of 150 µL of 4-NPA 133.3 µM was added to 10 µL of DMSO containing the appropriate amount of compound. The reaction was started by adding 40 µL of MAGL (11 ng/well) in such a way that the assay was linear over 30 min. After the reaction had progressed for 30 min, absorbance values were measured by using a VictorX3 instrument (PerkinElmer, Waltham, MA, USA) at 405 nm. Two more reactions were carried out: one reaction containing no compounds and the second one containing neither enzyme nor inhibitor. To remove possible false positive results, a blank analysis was performed for each compound concentration and the final absorbance results were obtained detracting the absorbance produced by the presence of all the components except MAGL in the same conditions.

Test [3] deals with T1, Human recombinant MAGL. Description: MAGL inhibition after preincubation of compound with enzyme (reversibility). The note with it: preincubated with the enzyme for 0, 30 and 60 min before adding the substrate. The procedure:
as §1
Human recombinant MAGL and 4-nitrophenyl acetate substrate (4-NPA) were bought from Cayman Chemical (Ann Arbor, MI, USA). […] After the reaction had progressed for 30 min, absorbance values were measured by using a VictorX3 instrument (PerkinElmer, Waltham, MA, USA) at 405 nm. […] To remove possible false positive results, a blank analysis was performed for each compound concentration and the final absorbance results were obtained detracting the absorbance produced by the presence of all the components except MAGL in the same conditions.

The mark [4] stands for this setting: assayed in the absence of DTT, read-out: IC50 in the absence of DTT.
Setting [5] is: assayed in the presence of 10 µM DTT, read-out: IC50 in the presence of DTT.

As a reminder, the IC50 is the midpoint of a concentration-inhibition curve.

In the case of `Cc1cc(=O)[nH]c(-c2ccc(NS(=O)(=O)c3ccc(F)cc3Cl)cc2)n1` [VS1], the results for the half-inhibitory concentration (IC50) at Human recombinant MAGL [1], on Human recombinant MAGL [2] (setting [4]) and at Human recombinant MAGL [2] (setting [5]) were 34.7 ± 2.4 µM, 35.4 µM and 34.1 µM, respectively. Further, the “Effect of preincubation time on inhibitory potency (reversible or irreversible mechanism)” value at Human recombinant MAGL [3] is on record as “did not show any significant increase in inhibitory potency at longer incubation times”. Regarding `O=C(c1ccco1)N1CCN(C2CC(=O)N(c3cccc(Cl)c3)C2=O)CC1` (stereo not shown) [VS4], the concentration for half-maximal inhibition (IC50) at Human recombinant MAGL [1] is 138 ± 11 µM.

`O=C(c1ccco1)N1CCN(C2=CC(=O)N(c3cccc(Cl)c3)C2=O)CC1` [VS2]: the IC50 turned out to be 48.9 ± 4.2 µM on Human recombinant MAGL [1], 47.5 µM at Human recombinant MAGL [2] (setting [4]) and 49.5 µM on Human recombinant MAGL [2] (setting [5]). Moreover, on Human recombinant MAGL [3], the “Effect of preincubation time on inhibitory potency (reversible or irreversible mechanism)” value was “did not show any significant increase in inhibitory potency at longer incubation times”. Consider `O=C(c1ccc(Cl)cc1)C1CCN(C(=O)c2cccc(O)c2)CC1` [Compound 17b, reference compound], for which, on Human recombinant MAGL [1], the IC50 is 0.9 ± 0.08 µM. On to `O=C(Nc1nnc(C2CC(=O)N(c3ccccc3)C2)s1)c1cccc(Br)c1` (stereo not shown) [VS6], for which, at Human recombinant MAGL [1], the concentration for half-maximal inhibition (IC50) was greater than 200 µM.

With `O=C1c2ccc(-c3nc4ccccc4c(=O)o3)cc2C(=O)N1Cc1ccc(Cl)cc1` [VS5], the IC50 at Human recombinant MAGL [1] was greater than 200 µM. Take `CC(C)c1ccc(OCC(=O)Nc2ccc(-c3nc4ccccc4c(=O)o3)cc2)cc1` [VS3]: the 50% inhibitory concentration (IC50) at Human recombinant MAGL [1] was determined as 79.4 ± 6.3 µM.
